Where two headings read alike, the source gives them in different places. Peptide text beside a SMILES is read from it. * marks the point of attachment. Cbz = O=C(OCc1ccccc1)*
Tests used:
[1] = biological target: SARS-CoV-2 main protease (M^pro) (Severe acute respiratory syndrome coronavirus 2, UniProt P0DTD1); experiment: biochemical; conditions: for inhibition at 20 µM: read-out: inhibition against M^pro
SARS-CoV-2 M^pro = SARS-CoV-2 M^pro (Severe acute respiratory syndrome coronavirus 2, UniProt P0DTD1); assay type: binding
[2] = system: influenza virus A/California/07/2009 (H1N1); experiment: Influenza A virus plaque reduction assay; assay type: cell-based; conditions: read-out: A/California/07/2009 (H1N1) antiviral activity (EC50)
EV-A71 2A protease = biological target: T1, EV-A71 2A protease (Human enterovirus 71, UniProt Q66478); experiment: biochemical
T1 sequence (Q66478 863-1012 limits assumed): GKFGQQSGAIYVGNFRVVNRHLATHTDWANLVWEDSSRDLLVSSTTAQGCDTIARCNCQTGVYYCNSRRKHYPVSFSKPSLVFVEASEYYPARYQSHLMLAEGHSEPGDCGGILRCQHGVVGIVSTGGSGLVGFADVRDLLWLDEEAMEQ

EV-A71 3C protease = EV-A71 3C protease (Human enterovirus 71, UniProt Q66478); experiment: biochemical
SARS-CoV 3CL^pro (M^pro) = conditions: read-out: IC50 against SARS-CoV 3CL^pro (M^pro); cited from earlier work
[3] = 8 µM protein, 4 mM DTT, ligand 12.5 µM (62: 25 µM), up to two ligands per dimer

EV-A71 3C protease, sequence (Q66478 1549-1731): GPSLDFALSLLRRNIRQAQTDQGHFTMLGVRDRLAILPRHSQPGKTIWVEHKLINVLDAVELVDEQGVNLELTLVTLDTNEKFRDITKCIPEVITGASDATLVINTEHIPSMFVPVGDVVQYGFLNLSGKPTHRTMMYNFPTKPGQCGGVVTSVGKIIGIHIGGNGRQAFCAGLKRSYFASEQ

Compound: Cc1cccc(C)c1OCC(=O)N[C@@H](Cc1ccccc1)[C@@H](O)C[C@H](Cc1ccccc1)NC(=O)[C@H](C(C)C)N1CCCNC1=O [compound 10, lopinavir]
- IC50 [1]: > 20 µM

Compound: COc1ccc2c(O[C@@H]3C[C@H]4C(=O)N[C@]5(C(=O)NS(=O)(=O)C6CC6)C[C@H]5/C=C\CCCCN(C)C(=O)[C@@H]4C3)cc(-c3nc(C(C)C)cs3)nc2c1C [compound 24, simeprevir]
- inhibition at 20 µM [1]: > 60%

Compound: CC(C)(C)NC(=O)N[C@H](C(=O)N1C[C@H]2[C@@H]([C@H]1C(=O)NC(CC1CCC1)C(=O)C(N)=O)C2(C)C)C(C)(C)C (stereo partly shown) [compound 28, boceprevir]
- binding stoichiometry by native MS (SARS-CoV-2 M^pro): one drug per protomer
- EC50 [2]: > 20 µM
- IC50 (EV-A71 2A protease): > 20 µM
- IC50 (EV-A71 3C protease): > 20 µM
- inhibition at 20 µM [1]: > 60%

Compound: CCCC[C@H](NC(=O)[C@@H]1[C@@H]2[C@H](CN1C(=O)[C@@H](NC(=O)NC1(CS(=O)(=O)C(C)(C)C)CCCCC1)C(C)(C)C)C2(C)C)C(=O)C(=O)NC1CC1 [compound 29, narlaprevir]
- IC50 (EV-A71 2A protease): > 20 µM
- IC50 (EV-A71 3C protease): > 20 µM
- inhibition at 20 µM [1]: > 60%

Compound: CN(C)C(=O)COC(=O)Cc1ccc(OC(=O)c2ccc(NC(=N)N)cc2)cc1 [compound 39, camostat]
- IC50 [1]: > 20 µM

Compound: CC(C)C[C@@H](C=O)NC(=O)[C@H](CC(C)C)NC(=O)[C@H](CC(C)C)NC(=O)OCc1ccccc1 [compound 43, MG-132] (Cbz-Leu-Leu-Leu-aldehyde)
- IC50 (EV-A71 2A protease): > 20 µM
- IC50 (EV-A71 3C protease): > 20 µM
- inhibition at 20 µM [1]: > 60%

Compound: CC(C)[C@H](NC(=O)OCc1ccccc1)C(=O)N[C@H](C=O)Cc1ccccc1 [compound 57, calpain inhibitor III] (Cbz-Val-Phe-aldehyde)
- IC50 [1]: > 20 µM

Compound: CCOC(=O)/C=C/[C@H](C[C@@H]1CCNC1=O)NC(=O)[C@@H](CC(=O)[C@@H](NC(=O)c1cc(C)on1)C(C)C)Cc1ccc(F)cc1 [compound 65, rupintrivir]
- IC50 (SARS-CoV 3CL^pro (M^pro)): > 100 µM
- activity against EV-A71 2A protease (EV-A71 2A protease): inactive
- activity against EV-A71 3C protease (EV-A71 3C protease): potent inhibition

Compound: GC-376 [compound 64]
- EC50 ([2]; plaque assay): > 20 µM
- activity against EV-A71 2A protease (EV-A71 2A protease): inactive
- activity against EV-A71 3C protease (EV-A71 3C protease): potent inhibition

Compound: calpain inhibitor II [compound 61]
- binding stoichiometry by native MS (SARS-CoV-2 M^pro; [3]): one drug per protomer
- EC50 ([2]; plaque assay): > 20 µM

Compound: calpain inhibitor XII [compound 62]
- binding stoichiometry by native MS (SARS-CoV-2 M^pro; [3]): one drug per protomer
- EC50 ([2]; plaque assay): > 20 µM

Source: PMC7294525 (Cell Research, 2020)
